The target of one assay is T1, glucocorticoid receptor (Rattus norvegicus, UniProt P06536).
T1 construct: thymus cytosol of the adrenalectomized rat; from tissue; host or cells: thymus (cytosol) of adrenalectomized rat
T1 sequence (P06536 1-795): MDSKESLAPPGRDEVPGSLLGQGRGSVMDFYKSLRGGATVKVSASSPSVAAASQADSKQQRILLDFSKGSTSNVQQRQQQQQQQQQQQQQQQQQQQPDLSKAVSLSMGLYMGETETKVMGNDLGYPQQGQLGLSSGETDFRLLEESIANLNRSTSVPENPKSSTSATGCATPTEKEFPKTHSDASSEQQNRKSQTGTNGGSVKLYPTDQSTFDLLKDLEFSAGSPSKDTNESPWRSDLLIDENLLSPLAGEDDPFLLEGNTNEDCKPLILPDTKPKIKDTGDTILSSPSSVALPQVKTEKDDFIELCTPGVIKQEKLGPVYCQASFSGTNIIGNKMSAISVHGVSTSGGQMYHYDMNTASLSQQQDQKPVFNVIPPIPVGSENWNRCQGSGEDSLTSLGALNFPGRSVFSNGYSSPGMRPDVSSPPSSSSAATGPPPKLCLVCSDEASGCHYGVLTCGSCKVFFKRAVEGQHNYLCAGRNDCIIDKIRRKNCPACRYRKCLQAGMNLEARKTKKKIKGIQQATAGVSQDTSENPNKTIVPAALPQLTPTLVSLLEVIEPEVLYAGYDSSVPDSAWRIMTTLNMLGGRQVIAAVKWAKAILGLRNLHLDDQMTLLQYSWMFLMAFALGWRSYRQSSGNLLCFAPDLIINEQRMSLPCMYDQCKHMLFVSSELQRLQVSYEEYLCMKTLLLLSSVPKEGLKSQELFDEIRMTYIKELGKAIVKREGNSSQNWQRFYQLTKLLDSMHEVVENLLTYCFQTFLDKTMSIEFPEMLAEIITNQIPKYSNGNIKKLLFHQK
Kind of assay: relative molar bonding affinity to glucocorticoid receptor (competitive bonding). To be noted: dexamethasone = 100%; thymus cytosol of adrenalectomized rat; 3H-dexamethasone, 20 nM; 18 h, 0-4° C. In kind it is binding. Here is the method: (§1) Measurement of bonding affinity for receptors
(§2) Receptor bonding affinity was determined by competitive bonding of a specifically binding ^3 H labelled hormone (tracer) and the compound to be tested to receptors in the cytosol from animal target organs. It was tried to obtain receptor saturation and a balanced reaction. The following incubation conditions were selected:
Glucocorticoid receptor: thymus cytosol of the adrenalectomized rat, thymi kept at -30° C., buffer: TED. Tracer: ^3 H-dexamethasone, 20 nM; reference substance: dexamethasone.
(§3) After an incubation period of 18 hours at 0°-4° C., bonded and free steroid was separated by mixing in active carbon/dextrane (1%/0.1%), centrifuging off and measuring the bonded ^3 H activity in the supernatant.
(§4) The IC50 for the compound to be tested and for the reference substance were determined from measurements in series of concentrations.

For assay [1], the system named is early gravidity in the rat. Kind of assay: Early abortive effect / inhibition of early gravidity in the rat. To be noted: for complete gravidity inhibition % / complete gravidity inhibition N*/N (females not pregnant/inseminated females): empty uteri. In kind it is in vivo. Here is the method:
Inhibition of early gravidity in the rat
Female rats are mated in the pro-oestrus. If semen is found in the vaginal smear on the next day, this day is counted as day 1 (=d1) of the gravidity. Treatment with the test substance or vehicle is applied on d5-d7, autopsy is carried out on d9. The substances are injected subcutaneously in 0.2 ml of vehicle (benzyl benzoate/castor oil 1+4).

A further assay deals with T2, progesterone receptor (Oryctolagus cuniculus, UniProt P06186).
T2 construct: uterine cytosol of the estradiol-primed rabbit; from tissue; host or cells: uterus (cytosol) of estradiol-primed rabbit
T2 sequence (P06186 1-930): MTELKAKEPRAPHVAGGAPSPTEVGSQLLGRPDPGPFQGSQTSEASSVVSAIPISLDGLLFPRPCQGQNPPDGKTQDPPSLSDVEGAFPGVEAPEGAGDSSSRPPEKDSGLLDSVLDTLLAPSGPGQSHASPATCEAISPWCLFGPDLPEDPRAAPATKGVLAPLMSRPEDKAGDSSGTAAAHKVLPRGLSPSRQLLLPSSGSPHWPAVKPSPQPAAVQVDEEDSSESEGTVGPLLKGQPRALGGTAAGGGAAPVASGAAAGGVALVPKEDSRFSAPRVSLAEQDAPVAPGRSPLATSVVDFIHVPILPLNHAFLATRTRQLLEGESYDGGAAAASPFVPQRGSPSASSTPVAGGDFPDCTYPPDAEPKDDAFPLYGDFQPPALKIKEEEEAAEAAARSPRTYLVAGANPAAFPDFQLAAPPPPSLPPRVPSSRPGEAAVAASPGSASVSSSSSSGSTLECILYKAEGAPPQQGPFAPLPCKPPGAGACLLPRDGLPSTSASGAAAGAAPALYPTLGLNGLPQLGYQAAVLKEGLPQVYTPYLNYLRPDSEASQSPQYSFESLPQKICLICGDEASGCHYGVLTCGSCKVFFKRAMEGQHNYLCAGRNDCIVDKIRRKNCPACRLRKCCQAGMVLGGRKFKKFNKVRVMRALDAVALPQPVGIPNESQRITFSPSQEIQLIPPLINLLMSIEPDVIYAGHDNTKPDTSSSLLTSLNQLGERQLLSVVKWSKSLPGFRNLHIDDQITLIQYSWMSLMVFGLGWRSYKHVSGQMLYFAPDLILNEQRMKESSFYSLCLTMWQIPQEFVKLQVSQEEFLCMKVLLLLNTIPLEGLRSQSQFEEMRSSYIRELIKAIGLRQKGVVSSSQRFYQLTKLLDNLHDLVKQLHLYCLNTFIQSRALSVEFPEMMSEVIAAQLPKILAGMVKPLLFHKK
Kind of assay: relative molar bonding affinity to progesterone receptor (competitive bonding). In kind it is binding. Conditions: progesterone = 100%; uterine cytosol of estradiol-primed rabbit; 3H-ORG 2058, 5 nM; 18 h, 0-4° C. Here is the method:
as §1, §2
Progesterone receptor: uterine cytosol of the estradiol-primed rabbit, kept at -30° C. in TED buffer (20 mM Tris/HCl, pH 7.4; 1 mM ethylene diamine tetraacetate, 2 mM dithio threitol) with 250 mM of saccharose.
as §3, §4

Setting [2] is: 0.3 mg/animal/day s.c., 5th to 7th day of pregnancy.
Where [3] appears, read: 1.0 mg/animal/day s.c., 5th to 7th day of pregnancy.
Setting [4] is: 3.0 mg/animal/day s.c., 5th to 7th day of pregnancy.

With `COC[C@]1(OC)CC[C@H]2[C@@H]3CCC4=CC(=O)CCC4=C3[C@@H](c3ccc(C=NO)cc3)C[C@@]21C` [Example 1, 11β-[4-(hydroximinomethyl)phenyl]-17β-methoxy-17α-methoxymethyl-estra-4,9-diene-3-on], the “relative molar bonding affinity (RBA) to glucocorticoid receptor” value at glucocorticoid receptor is 78%. For the same compound, the “complete gravidity inhibition %” value in assay [1] (setting [2]) is reported as 0%; in assay [1] (setting [3]) it was 100%; in assay [1] (setting [4]) it was 100%. Moreover, the “complete gravidity inhibition N*/N (females not pregnant/inseminated females)” value in assay [1] (setting [2]) is on record as 0/5; in assay [1] (setting [3]), 5/5; in assay [1] (setting [4]) it was 5/5. In addition, the “ED 50” value in assay [1] (s.c., 5th to 7th day of pregnancy, graphic determination) is listed as 0.6 mg/animal/day. For the same compound, in assay [1] (s.c., d5-d7, autopsy d9, factor compared to RU 486), the “inhibition capability of nidation as compared to RU 486 (factor)” value is recorded as 3. Besides, at progesterone receptor, the “relative molar bonding affinity (RBA) to progesterone receptor” value is listed as 302%.
